Laboratory results from patent publication US20170112792A1, “ENHANCED ATRA-RELATED COMPOUNDS DERIVED FROM STRUCTURE-ACTIVITY RELATIONSHIPS AND MODELING FOR INHIBITING PIN1” (Beth Israel Deaconess Medical Center, Inc., priority 2014, published 2017).

Assays:
[1] = test system: BMDCs co-cultured with naive CD4+ cells; assay: IL-33-induced TH2 polarization, BMDC / naive CD4+ T cell coculture; conditions: IL-33 50 ng/ml, 5 μM ATRA
Protocol: BMDCs were isolated from WT or Pin1 KO mice in a 1:5 ratio for 5 days with no antigen being added. […] Supernatants were analyzed for cytokines on day 5.
To examine whether Pin1 is required for IL-33-induced TH2 polarization, we evaluated the effects of Pin1 KO derived dendritic cells in IL-33-induced TH2 polarization by co-culturing bone marrow dendritic cells (BMDCs) derived from WT or Pin1 KO mice with WT naïve CD4^+ cells. The cells were treated with IL-33 and resultant IL-5 and IL-13 were measured.

GST-Pin1 [2] = target: T1, GST-Pin1 (Homo sapiens, UniProt Q13526); assay: fluorescence polarization (FP) pTide competition assay / FP-HTS
T1 sequence (Q13526 whole entry): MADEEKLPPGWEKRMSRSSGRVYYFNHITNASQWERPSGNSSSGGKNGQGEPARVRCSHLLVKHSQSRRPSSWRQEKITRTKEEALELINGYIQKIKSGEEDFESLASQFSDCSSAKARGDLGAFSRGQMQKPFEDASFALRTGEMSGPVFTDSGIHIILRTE
Excerpt: This sequence was optimized for solubility and binding to GST-PPI. […] Measurements of fluorescence polarization and fluorescence absorbance were made in black 384-well plates (Corning) using a Synergy II plate reader. Compounds were transferred to plates using a custom-built Seiko pin-transfer robot at the Institute for Chemistry and Cell Biology at Harvard Medical School. The assay can tolerate up to 10%/o DMSO.
Molecules that compete with pTide for binding to the active site, e.g., Pin1 substrates, were detected under equilibrium conditions. A Z score was used to identify and rank those molecules that were most competitive with pTide (e.g., that have higher binding affinity). A Z score is defined as Z=(x−μ)/σ, where x is a raw score, μ is the mean of the population, and σ is the standard deviation of the population. Molecules with the most negative Z scores represent those with the highest Pin1 binding affinity. The Z′ value for this assay was around 0.70 and was consistent for day-to-day performance, with a coefficient of variation in the range of 4-5%.
A lower value of Ki is indicative of higher association and, accordingly, higher affinity of the substrate to the protein.

[3] = test system: Pin1 WT and Pin1 KO mouse embryonic fibroblasts (MEFs); assay: cell growth of Pin1 WT and KO MEFs
Protocol: For cell growth assays described below, cells were seeded in a density of 3000 cells per well in 96-well flat-bottomed plates, and incubated for 24 h in 10% FBS-supplemented DMEM culture medium. […] Control cells received DMSO at a concentration equal to that in drug-treated cells. After 72 hours, the number of cells was counted after trypsin digestion, or medium containing 0.5 mg/ml 3-(4,5-dimethylthiazol-2-yl)-2,5-diphenyl-2H-tetrazolium bromide was added to each well for 2 hours of incubation at 37° C., followed by removal of the media before the addition of 200 μl DMSO. Absorbance was determined at 570 nm.

cyclin D1 promoter = cyclin D1 promoter luciferase activity with Pin1 overexpression; conditions: 72 hours
GST-FKBP12 = GST-FKBP12 (Homo sapiens, UniProt P62942); assay: chymotrypsin coupled PPlase activity assay, FKBP12; format: biochemical
GST-FKBP12, sequence (P62942 whole entry): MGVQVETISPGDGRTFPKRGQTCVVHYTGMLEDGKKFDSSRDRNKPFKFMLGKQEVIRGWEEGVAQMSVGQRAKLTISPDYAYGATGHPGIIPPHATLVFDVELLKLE

SKBR3 cells = assay: foci formation assay with Pin1 overexpression
MDA-MB-231 cells = assay: MDA-MB-231 xenograft in nude mice
Excerpt: In pilot experiments, MDA-MB-231 cells were subcutaneously injected into female nude mice in the flank.

DC2.4 cells = assay: IL-33-induced gene expression in DC2.4 cells expressing IRAKM or mutants; format: cell-based, mouse
Excerpt: In the left panels, western blots show protein levels of IRAKM, Pin1 and tubulin. The right panels show the relative gene expression of IL-6, CXCL2, CSF3 and CCL5 in the different samples normalized to actin.

[4] = test system: NIH3T3 cells stably expressing Flag-tagged Pin1; assay: centrosome amplification induced by Pin1 overexpression; conditions: 72 hours
Protocol: Tissue samples were washed with PBS and fixed with 4% paraformaldehyde at room temperature for 20 minutes, followed by permeabilization and blocking with PBS containing 0.1% Triton X-100 and 5% FBS for 1 hour. After another wash with PBS, immunostaining was performed by incubating the cells with mouse anti-Pin1 (1:1000), or rabbit anti-PML (Santa Cruz; 1:100) primary antibodies at 4° overnight. Primary antibodies were diluted in PBS containing 0.1% Triton X-100, 0.2% BSA, 0.5 mM PMSF, and 1 mM dithiothreitol. […] Samples were nuclear counterstained with 4,6-diamidino-2-phenylindole (DAPI), mounted and visualized with a LSM510 confocal imaging system. For centrosome duplication assays, NIH3T3 cells were used. Cells were synchronized in G1/S phase by adding 10 μg/ml aphidicolin for 24 hours, then fixed with 4% paraformaldehyde at room temperature for 20 minutes. Cells were then stained for centrosomes with anti-γ-tubulin antibodies (Sigma; 1:100) and analyzed by confocal microscopy.

RAR = assay: transactivation of RAR downstream target genes
Pin1 [5] = assay: Pin1 protein level, mRNA and stability in MEFs (immunoblot, RT-PCR, CHX chase); format: cell-based, mouse
Protocol: RNA from cells was extracted with the Total RNA isolation mini kit (Agilent). cDNA was prepared with transcriptor first strand cDNA synthesis kit (Roche) and PCR was carried out with iQ SYBR Green Supermix (Bio-Rad) or SYBR Green PCR Master Mix (Applied Blosystems). 1 μl cDNA was used for each RT-PCR reaction. Samples were run on the QIAGEN Rotor-Gene Q real-time cycler or the Applied Biosystems StepOnePlus Real Time PCR instrument. GAPDH was used as an internal control. Analysis was performed with the ^ΔΔCt method. The following primers were used: […]

MDA-MB-468 cells = assay: MDA-MB-468 xenograft in nude mice
Protocol: Tumor sizes were measured weekly and mice were sacrificed after 7 weeks to collect tumor tissues (37D). […] Pin1 and cyclin D1 in xenograft tumors were assayed by IB (37F).

IL-33-induced asthma = IL-33-induced asthma in mice
[6] = test system: human normal and breast cancer cell lines; assay: cell growth of human normal and breast cancer cell lines; format: cell-based; conditions: 72 hours
Protocol: (§1) Absorbance was determined at 570 nm.
To test this possibility, we chose breast cancer as a model due to the substantial oncogenic role of Pin1 in vitro and in vivo.

Pin1 and PML-RARα = Pin1 and PML-RARα immunostaining in bone marrow of APL patients
Protocol: Tissue samples were washed with PBS and fixed with 4% paraformaldehyde at room temperature for 20 minutes, followed by permeabilization and blocking with PBS containing 0.1% Triton X-100 and 5% FBS for 1 hour. After another wash with PBS, immunostaining was performed by incubating the cells with mouse anti-Pin1 (1:1000), or rabbit anti-PML (Santa Cruz; 1:100) primary antibodies at 4° overnight. Primary antibodies were diluted in PBS containing 0.1% Triton X-100, 0.2% BSA, 0.5 mM PMSF, and 1 mM dithiothreitol. […] Samples were nuclear counterstained with 4,6-diamidino-2-phenylindole (DAPI), mounted and visualized with a LSM510 confocal imaging system.
Bone marrow aspirates were obtained with informed consent from the iliac crest of patients in whom the diagnosis of acute promyelocytic leukemia was suspected based on the morphological evaluation of peripheral blood smear. […] Samples tested positive for the PML/RARα rearrangement by RT-PCR.

GST-Pin1 [7] = target: T1, GST-Pin1; assay: chymotrypsin coupled PPlase activity assay, Pin1; format: biochemical
Excerpt: where Km is the Michaelis constant for the used substrate, S is the initial concentration of the substrate in the assay, and the IC50 value is of the inhibitor.

[8] = test system: Pin1 and its substrate oncogenes and tumor suppressors; assay: immunoblot of Pin1 and its substrate proteins in breast cells
Protocol: (§2) For immunoprecipitation and immunoblotting in the examples below, cells were polyethylenimine (PEI)- or lipofemamine-transfected with 8 μg of various plasmids, incubated in 10 cm dishes for 24 hours, and subsequently treatment with drugs as needed. […] After centrifugation at 13,000 g for 10 minutes, one tenth of the supernatant was stored as input, and the remainder was incubated 12 hours with M2 Flag agarose (Sigma). After brief centrifugation, immunoprecipitates were collected, extensively washed with the aforementioned lysis buffer twice, suspended in 2×SDS sample buffer (100 mM Tris-HCl, pH 6.8, 4% SDS, 5% β-mercaptoethanol, 20% glycerol, and 0.1% bromphenol blue), boiled for 10 minutes, and subjected to immunoblotting analysis. […] After electrophoresis, gel was transferred to nitrocellulose membranes using a semidry transfer cell. The transblotted membrane was washed twice with Tris-buffered saline containing 0.1% Tween 20 (TBST). After blocking with TBST containing 5% bovine serum albumin (BSA) for 1 hour, the membrane was incubated with the appropriate primary antibody (diluted 1:1000) in 2% BSA-containing TBST at 4° C. overnight. After incubation with the primary antibody, the membrane was washed three times with TBST for a total of 30 minutes followed by incubation with horseradish peroxidase (HRP)-conjugated goat anti-rabbit or anti-mouse IgG (diluted 1:2500) for 1 hour at room temperature. After three extensive washes with TBST for a total of 30 minutes, the immunoblots were visualized by enhanced chemiluminescence.

Pin1 [9] = target: T2, Pin1 (Homo sapiens, UniProt Q13526); assay: photoaffinity labeling of Pin1 with [3H]ATRA; format: binding; conditions: read-out: equilibrium dissociation constant Kd
T2 construct: His6 (N); made in house; host or cells: E. coli (inferred: pET28, IPTG induction, LB culture; BL21(DE3) is printed only for the WW domain)
T2 sequence (Q13526 whole entry, the tested form may be a part): as the sequence (Q13526 whole entry) above
Protocol: […] of Pin1 was incubated in microcentrifuge tubes with a series of concentrations of all-trans-[11,12-^3H]-retinoic acid (PerkinElmer, 43.7 Ci/mmol) in 20 μl of the FP assay buffer at 23° C. with agitation for 2 hours in the dark. The caps of the microcentrifuge tubes were opened, and the samples were placed on ice and exposed to an Electrophoresis System 365/254 nm UV hand lamp (Fisher Scientific) suspended 6 cm above the surface of the liquid for 15 minutes. The samples were boiled in SDS sample buffer and subsequently separated on standard SDS/PAGE gels. The gels were dried and then used for fluorography at −80° C. for 5 days and quantified using Quantity One from BioRad.

human APL NB4 cells = assay: NB4 cell growth; format: cell-based
Protocol: as §1

[10] = test system: APL cells isolated from hCG-PML-RARα transgenic mice; conditions: same regimens
[11] = test system: Pin1 and PML-RARα in NB4 cells; assay: immunoblot of Pin1 and PML-RARα in APL NB4 cells; format: cell-based, human
Protocol: as §2

GST-cyclophilin = assay: chymotrypsin coupled PPlase activity assay, cyclophilin
MRL/lpr lupus prone mice = assay: MRL/lpr lupus prone mice
[12] = humans; cited from earlier work
[13] = 5 or 10 mg 21 day pellets implanted 1 week after inoculation
[14] = cells stably expressing Flag-Pin1, ATRA implants
[15] = three sensitive cancer cell lines, 72 hours

SMILES: CC1=C(/C=C/C(C)=C/C=C/C(C)=C/C(=O)O)C(C)(C)CCC1 [ATRA, (2E,4E,6E,8E)-3,7-dimethyl-9-(2,6,6-trimethylcyclohexen-1-yl)nona-2,4,6,8-tetraenoic acid]
- TH2 polarization (IL-5 and IL-13 secretion) [1]: drastically attenuated
- Pin1 binding in FP assay (GST-Pin1 [2]): dramatically outperformed the other species
- competition with TAMRA-conjugated pTide for Pin1 (GST-Pin1 [2]; TAMRA-labeled probe): competitive
- growth inhibition of Pin1 KO MEFs ([3]; Pin1 KO MEFs): much more resistant
- growth inhibition of Pin1 WT MEFs ([3]; Pin1 WT MEFs): relatively high concentrations of ATRA were required
- Pin1-induced activation of the cyclin D1 promoter (cyclin D1 promoter): dose-dependently and fully inhibited
- inhibition of FKBP12 (GST-FKBP12): did not inhibit
- degradation of PML-RARα and Pin1 in RARα, β, γ triple KO MEFs (Flag-PML-RARα and Pin1): induced degradation of PML-RARα and Pin1 similar to that for WT controls
- Pin1-enhanced foci formation (SKBR3 cells): dose-dependently and fully inhibited
- antitumor activity, intraperitoneal (MDA-MB-231 cells; 12.5 mg/kg i.p. 3 times a week for 8 weeks): modest antitumor activity
- Pin1 and cyclin D1 in xenograft tumors (MDA-MB-231 cells; 5 or 10 mg 21 day pellets): reduced both Pin1 and its substrate cyclin D1
- tumor growth, ATRA-releasing pellets (MDA-MB-231 cells; [13]): potently and dose-dependently inhibited tumor growth
- endogenous and exogenous Pin1 and cyclin D1 in tumors (MDA-MB-231 cells; [14]): dose-dependently reduced both endogenous and exogenous Pin1, and cyclin D1
- tumor growth of Pin1-overexpressing MDA-MB-231 cells (MDA-MB-231 cells; [14]): effectively inhibited by ATRA in a dose-dependent manner
- reduction of target gene expression in IRAKM P111A cells (DC2.4 cells): completely abolished
- Pin1 expression (DC2.4 cells; 5 or 10 μM ATRA for three days before IL-33): reduced Pin1 expression
- expression of IL-6, CXCL2, CSF3 and CCL5 in IRAKM stably expressing cells (DC2.4 cells; even at low ATRA dose (5 μM)): reduced Pin1 expression (FIG. 63D) and the expression of these target genes
- reduction of target gene expression in IRAKM S110E cells (DC2.4 cells; high ATRA dose (10 μM)): some degree of reduction in gene expression still persisted
- Pin1-induced centrosome amplification [4]: dose-dependently and fully inhibited
- transactivation of RAR downstream target genes (RAR): effectively and significantly induces transactivation of RAR downstreams
- potency in reducing Pin1 levels and stability, comparison (Pin1 [5]): more potent in reducing Pin1 levels and stability than 13cRA
- Pin1 protein level (Pin1 [5]; immunoblot, not W34/K63A mutant): dose-dependently down-regulated Pin1
- Pin1 mRNA levels (Pin1 [5]; quantitative RT-PCR): no obvious effects
- Pin1 and cyclin D1 in xenograft tumors (MDA-MB-468 cells; 5 or 10 mg 21 day pellets): reduced both Pin1 and its substrate cyclin D1
- tumor growth, ATRA-releasing pellets (MDA-MB-468 cells; [13]): potently and dose-dependently inhibited tumor growth
- IL-33 induced asthma phenotypes (inflammation, airway remodeling, BALF cells) (IL-33-induced asthma; 10 mg 21 day ATRA-releasing pellets, 14 days before intranasal IL-33): dramatically attenuated
- BALF IL-12 and TNF-α levels (IL-33-induced asthma; same regimen): no significant effect
- BALF IL-13 and -5 levels (IL-33-induced asthma; same regimen): significantly reduced
- IRAKM accumulation and nuclear localization in BALF cells (IL-33-induced asthma; same regimen): almost completely abrogated
- IRAKM levels in the lung (IL-33-induced asthma; same regimen): reduction of IRAKM levels back to control treated mice
- Pin1 protein levels in the lung (IL-33-induced asthma; same regimen): effectively decreased the Pin1 protein levels only after IL-33 was administrated
- sensitivity of malignant breast cells [6]: differential susceptibility
- sensitivity of non-transformed MCF10A and HMLE cells [6]: highly resistant
- PML-RARα level remaining in APL patients' bone marrow (Pin1 and PML-RARα; 3 days of ATRA treatment): ~40%
- Pin1 level remaining in APL patients' bone marrow (Pin1 and PML-RARα; 3 days of ATRA treatment): ~40%
- PML-RARα level remaining in APL patients' bone marrow (Pin1 and PML-RARα; 10 days of ATRA treatment): < 10%
- Pin1 level remaining in APL patients' bone marrow (Pin1 and PML-RARα; 10 days of ATRA treatment): < 10%
- inhibition of PPlase activity of Pin1 (GST-Pin1 [7]): fully inhibited
- Ki (GST-Pin1 [7]; Cheng-Prusoff equation, read-out: Ki from PPlase assay): 820 nM
- effects on normal breast cells ([8]; normal cells): no appreciable effects
- protein levels of Pin1 and its substrate oncogenes [8, 15]: dose-dependent protein reduction
- protein levels of Pin1 substrate tumor suppressors [8, 15]: protein induction
- Kd (Pin1 [9]): 800 nM
- NB4 cell proliferation (human APL NB4 cells): suppressed
- PML-RARα in the bone marrow [10]: effectively reduced PML-RARα
- Pin1 levels in the bone marrow [10]: reduced Pin1 levels
- spleen weights [10]: nearly at basal levels
- Pin1 and PML-RARα expression ([11]; 10 μM, 96 hours, micrographs): reduced Pin1 and PML-RARα expression
- PML-RARα level in APL cells ([11]; 72 hours): dose-dependently reduced PML-RARα
- inhibition of cyclophilin (GST-cyclophilin): did not inhibit
- visual lupus-related phenotypes (fur loss, skin inflammation, lymphoid hyperplasia) (MRL/lpr lupus prone mice; 5 mg ATRA for 8 weeks from 8 weeks of age): drastically suppressed
- size of spleen and lymph node (MRL/lpr lupus prone mice; 14 week-old mouse): normal size
- glomerular deposition of IgG, C3, and CD68 (MRL/lpr lupus prone mice; mouse, in vivo): potently inhibited
- hyperkeratinosis (MRL/lpr lupus prone mice; mouse, in vivo): potently inhibited
- half-life [12]: ~45 min
